Values after ≈ are worked out from the molar mass of the structure shown. Where a name gives a salt, the structure may show the parent alone.
Experiments:
[1] = tested on: Streptococcus agalactiae; assay: Minimum inhibitory concentration (MIC); format: cell-based; conditions: Gram positive
Text: (§1) The antibacterial effects of compounds of the invention have been assessed by determination of the minimum inhibitory concentration (M.I.C.) value against a variety of Gram-negative and -positive bacteria. The microbial susceptibility data for four compounds, together with those for the antibacterial dipeptide beta-Cl-LAla-beta-Cl-LAla, are given in Table I.
(§2) in uM to facilitate a meaningful comparison of the approximate MICs among
(§3) the tested compounds; an appreciation of the MIC values in ug/mL can be
(§4) obtained by multiplying each value (μM) by 0.55

[2] = tested on: Serratia marcescens; assay: Minimum inhibitory concentration (MIC); format: cell-based; conditions: Gram-negative
Text: as §1, §2, §3, §4

[3] = tested on: Escherichia coli JSR-O; assay: Minimum inhibitory concentration (MIC); format: cell-based; conditions: Escherichia coli JSR-O; parental strain; read-out: Minimum Inhibitory Concentration
Text: as §1, §2, §3, §4

[4] = tested on: Escherichia coli DB4548; assay: Minimum inhibitory concentration (MIC); format: cell-based
Text: as §1, §2, §3, §4

[5] = tested on: Staphylococcus aureus PSL-14 Pen^R; assay: Minimum inhibitory concentration (MIC); format: cell-based; conditions: possesses a betalactamase
Text: as §1, §2, §3, §4

[6] = tested on: Salmonella typhimurium; assay: Minimum inhibitory concentration (MIC); format: cell-based; conditions: Salmonella enterica, Gram-negative
Text: as §1, §2, §3, §4

[7] = tested on: Staphylococcus aureus PSL-16 Pen^R; assay: Minimum inhibitory concentration (MIC); format: cell-based; conditions: possesses a betalactamase
Text: as §1, §2, §3, §4

[8] = tested on: Staphylococcus aureus H-2690-8^R; assay: Minimum inhibitory concentration (MIC); format: cell-based; conditions: possesses a betalactamase
Text: as §1, §2, §3, §4

[9] = tested on: Staphylococcus aureus T-4624-8 Pen^R; assay: Minimum inhibitory concentration (MIC); format: cell-based; conditions: possesses a betalactamase
Text: as §1, §2, §3, §4

[10] = tested on: Salmonella typhimurium LT 2; assay: Minimum inhibitory concentration (MIC); format: cell-based; conditions: Salmonella enterica, Gram-negative
Text: as §1, §2, §3, §4

[11] = tested on: Staphylococcus aureus PSL-13 Pen^R; assay: Minimum inhibitory concentration (MIC); format: cell-based; conditions: possesses a betalactamase
Text: as §1, §2, §3, §4

[12] = tested on: Hemophilus influenzae 238; assay: Minimum inhibitory concentration (MIC); format: cell-based; conditions: Haemophilus influenzae
Text: as §1, §2, §3, §4

[13] = tested on: Morganella morganii; assay: Minimum inhibitory concentration (MIC); format: cell-based; conditions: Gram-negative
Text: as §1, §2, §3, §4

[14] = tested on: Hemophilus influenzae 487; assay: Minimum inhibitory concentration (MIC); format: cell-based; conditions: Haemophilus influenzae, possesses a betalactamase
Text: as §1, §2, §3, §4

[15] = tested on: Staphylococcus aureus PSL-15 Pen^R; assay: Minimum inhibitory concentration (MIC); format: cell-based; conditions: possesses a betalactamase
Text: as §1, §2, §3, §4

[16] = tested on: Enterobacter areogenes; assay: Minimum inhibitory concentration (MIC); format: cell-based; conditions: Gram-negative
Text: as §1, §2, §3, §4

[17] = tested on: Psuedomonas aeruginosa; assay: Minimum inhibitory concentration (MIC); format: cell-based; conditions: Gram-negative
Text: as §1, §2, §3, §4

[18] = tested on: Enterobacter cloacae; assay: Minimum inhibitory concentration (MIC); format: cell-based; conditions: Gram-negative, read-out: Minimum Inhibitory Concentration
Text: as §1, §2, §3, §4

[19] = tested on: Shigella flexneri; assay: Minimum inhibitory concentration (MIC); format: cell-based; conditions: Gram-negative
Text: as §1, §2, §3, §4

[20] = tested on: Escherichia coli CR; assay: Minimum inhibitory concentration (MIC); format: cell-based; conditions: Escherichia coli CR; read-out: Minimum Inhibitory Concentration
Text: as §1, §2, §3, §4

[21] = tested on: Streptococcus faecalis; assay: Minimum inhibitory concentration (MIC); format: cell-based; conditions: Enterococcus faecalis; Streptococcus faecalis; Gram positive; read-out: Minimum Inhibitory Concentration
Text: as §1, §2, §3, §4

[22] = tested on: Hemophilus influenzae 236; assay: Minimum inhibitory concentration (MIC); format: cell-based; conditions: Haemophilus influenzae
Text: as §1, §2, §3, §4

[23] = tested on: Klebsiella pneumoniae; assay: Minimum inhibitory concentration (MIC); format: cell-based; conditions: Gram-negative
Text: as §1, §2, §3, §4

[24] = tested on: Escherichia coli JSR-O pBR322; assay: Minimum inhibitory concentration (MIC); format: cell-based; conditions: read-out: Minimum Inhibitory Concentration
Text: as §1, §2, §3, §4
^(i) Contains the plasmid gene encoding the TEM betalactamase.

[25] = target: E. coli TEM beta-lactamase (Escherichia coli, UniProt P62593); assay: Kinetics of enzymatic turnover by E. coli TEM beta-lactamase; format: biochemical
Procedure: Escherichi coli TEM beta-lactamase was purchased from Applied Microbiology and Research, Porton Down, U.K. L-Alanyl-L-alanine was purchase from Sigma; N-BOC-LAla-LAla and N-BOC-beta-Cl-LAla-beta-Cl-LAla were prepared as described previously. Cheung et al supra. All other reagents were of the best grade commercially available.
Kinetic Constants for the Reactions of E. coli TEM beta-Lactamase with Cephalothin and the Cephalosporin Peptide Esters 7 and 17.

[26] = tested on: Escherichia coli JSR-O Cl-Pep^R; assay: Minimum inhibitory concentration (MIC); format: cell-based; conditions: Escherichia coli, read-out: Minimum Inhibitory Concentration
Text: as §1, §2, §3, §4
^(g) This ia an E. coli JSRO strain selected for resistance to the
A comparison of the data for E. coli strains JSR-O and JSR-O Cl-Pep^R is of special interest. E. coli Cl-Pep^R is an E. coli JSR-O mutant which was selected for resistance to the dipeptide (f). […] Note that the MIC values for (d) and (e) against E. coli Cl-Pep^R (100 and 50 μM, respectively) are quite similar.

[27] = tested on: Corynebacterium JKM-4754; assay: Minimum inhibitory concentration (MIC); format: cell-based; conditions: JKM4754; Corynebacterium JKM-4754; resistant to cephalothin; read-out: Minimum Inhibitory Concentration
Text: as §1, §2, §3, §4
(§5) ^(j) Resistant to cephalothin (MIC >200 uM);

[28] = tested on: Escherichia coli Ceph^R; assay: Minimum inhibitory concentration (MIC); format: cell-based; conditions: Escherichia coli, read-out: Minimum Inhibitory Concentration
Text: as §1, §2, §3, §4, §5

[29] = tested on: Corynebacterium JKR-2285; assay: Minimum inhibitory concentration (MIC); format: cell-based; conditions: JKR2285; Corynebacterium JKR-2285; resistant to cephalothin; read-out: Minimum Inhibitory Concentration
Text: as §1, §2, §3, §4, §5

[30] = tested on: Staphylococcus epidermidis MO1554(P^S M^S); assay: Minimum inhibitory concentration (MIC); format: cell-based; conditions: Staphylococcus epidermidis MO1554 (penicillin- and methicillin-sensitive, P^S M^S)
Text: as §1, §2, §3, §4
(§6) ^(k) P and M refer to penicillin and methicillin, respectively.

[31] = tested on: Staphylococcus epidermidis 1239(P^R M^R); assay: Minimum inhibitory concentration (MIC); format: cell-based
Text: as §1, §2, §3, §4, §6

[32] = tested on: Staphylococcus epidermidis (P^R M^R); assay: Minimum inhibitory concentration (MIC); format: cell-based; conditions: no strain number
Text: as §1, §2, §3, §4, §6

[33] = tested on: Gram-negative and -positive bacteria; assay: Antibacterial activity, general trends of the MIC panel of Table I; format: cell-based; conditions: E. cloacae, all of the susceptible E. coli strains, H. influenzae 487, all of the S. aureus strains
Text: as §1

Sequence of E. coli TEM beta-lactamase (P62593 24-286 limits assumed): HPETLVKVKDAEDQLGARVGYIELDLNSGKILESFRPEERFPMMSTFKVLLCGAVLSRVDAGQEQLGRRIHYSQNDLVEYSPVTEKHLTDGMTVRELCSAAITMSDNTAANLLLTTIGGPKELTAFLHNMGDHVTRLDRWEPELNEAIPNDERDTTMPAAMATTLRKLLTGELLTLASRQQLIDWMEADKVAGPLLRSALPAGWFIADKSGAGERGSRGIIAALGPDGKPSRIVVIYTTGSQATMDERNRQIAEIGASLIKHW

**Q.** `C[C@H](N)C(=O)N[C@@H](C)C(=O)OCC1=C(C(=O)O)N2C(=O)[C@@H](NC(=O)Cc3cccs3)[C@H]2SC1` [(d), Sodium 7-beta-(2-thienylacetamido)-3-(L-alanyl-L-alanyloxymethyl)-3-cephem-4-carboxylate, toluenesulfonic acid salt] was tested. Which MIC [1] did it give?
**A.** ≤ 0.78 µM

**Q.** What about the MIC [2] of the same compound?
**A.** > 200 µM

**Q.** And the MIC [3]?
**A.** 200 µM

**Q.** And the MIC [4]?
**A.** 50 µM

**Q.** What about the MIC [5] of the same compound?
**A.** > 200 µM

**Q.** And the MIC [6]?
**A.** 100 µM

**Q.** And the MIC [7]?
**A.** 200 µM

**Q.** What about the MIC [8] of the same compound?
**A.** 25 µM

**Q.** What about the MIC [9] of the same compound?
**A.** 25 µM

**Q.** What about the MIC [10] of the same compound?
**A.** 25 µM

**Q.** What about the MIC [11] of the same compound?
**A.** > 200 µM

**Q.** And the MIC [12]?
**A.** ≤ 0.78 µM

**Q.** What about the MIC [13] of the same compound?
**A.** 100 µM

**Q.** And the MIC [14]?
**A.** 12.5 µM

**Q.** And the MIC [15]?
**A.** > 200 µM

**Q.** What about the MIC [16] of the same compound?
**A.** > 200 µM

**Q.** And the MIC [17]?
**A.** > 200 µM

**Q.** And the MIC [18]?
**A.** 200 µM

**Q.** What about the MIC [19] of the same compound?
**A.** 100 µM

**Q.** What about the MIC [20] of the same compound?
**A.** 200 µM

**Q.** And the MIC [21]?
**A.** 50 µM

**Q.** What about the MIC [22] of the same compound?
**A.** 50 µM

**Q.** And the MIC [23]?
**A.** > 200 µM

**Q.** What about the MIC [24] of the same compound?
**A.** > 200 µM

**Q.** What about the “Vmax compared with cephalothin” value [25] of the same compound?
**A.** substantially greater than that obtained for cephalothin

**Q.** And the “substrate for the lactamase” value [25]?
**A.** found to be substrates for the E. coli TEM beta-lactamase

**Q.** And the “binding to the lactamase (KM approximating KS)” value ([25]; effect of the C10-dipeptidyl substituent)?
**A.** do not compromise the binding of the cephalosporin nucleus to the lactamase

**Q.** And the MIC [26]?
**A.** 100 µM

**Q.** And the MIC [27]?
**A.** > 200 µM

**Q.** What about the MIC [28] of the same compound?
**A.** > 200 µM

**Q.** What about the MIC [29] of the same compound?
**A.** > 200 µM

**Q.** And the MIC [30]?
**A.** ≤ 0.78 µM

**Q.** And the MIC [31]?
**A.** ≤ 0.78 µM

**Q.** What about the MIC [32] of the same compound?
**A.** ≤ 0.78 µM

**Q.** What about the sensitivity observed [33] of the same compound?
**A.** no activity was seen

**Q.** With `C[C@H](N)C(=O)OCC1=C(C(=O)O)N2C(=O)[C@@H](NC(=O)Cc3cccs3)[C@H]2SC1` [(b), 7-beta-(2-thienylacetamido)-3-(L-alanyloxymethyl)-3-cephem-4-carboxylic acid] as the compound, how does the MIC [1] read?
**A.** ≤ 0.78 µM

**Q.** What about the MIC [2] of the same compound?
**A.** > 200 µM

**Q.** What about the MIC [3] of the same compound?
**A.** 100 µM (≈ 42.5 µg/mL)

**Q.** And the MIC [4]?
**A.** 50 µM (≈ 21.3 µg/mL)

**Q.** And the MIC [5]?
**A.** > 200 µM

**Q.** And the MIC [6]?
**A.** > 200 µM

**Q.** What about the MIC [7] of the same compound?
**A.** > 200 µM

**Q.** And the MIC [8]?
**A.** 100 µM (≈ 42.5 µg/mL)

**Q.** What about the MIC [9] of the same compound?
**A.** 100 µM (≈ 42.5 µg/mL)

**Q.** And the MIC [10]?
**A.** 50 µM (≈ 21.3 µg/mL)

**Q.** What about the MIC [11] of the same compound?
**A.** 200 µM (≈ 85.1 µg/mL)

**Q.** What about the MIC [12] of the same compound?
**A.** ≤ 0.78 µM

**Q.** And the MIC [13]?
**A.** 100 µM (≈ 42.5 µg/mL)

**Q.** And the MIC [14]?
**A.** 50 µM (≈ 21.3 µg/mL)

**Q.** And the MIC [15]?
**A.** 100 µM (≈ 42.5 µg/mL)

**Q.** What about the MIC [16] of the same compound?
**A.** > 200 µM

**Q.** What about the MIC [17] of the same compound?
**A.** > 200 µM

**Q.** What about the MIC [18] of the same compound?
**A.** > 200 µM

**Q.** What about the MIC [19] of the same compound?
**A.** 100 µM (≈ 42.5 µg/mL)

**Q.** And the MIC [20]?
**A.** 100 µM (≈ 42.5 µg/mL)

**Q.** What about the MIC [21] of the same compound?
**A.** > 100 µM

**Q.** What about the MIC [22] of the same compound?
**A.** 50 µM (≈ 21.3 µg/mL)

**Q.** And the MIC [23]?
**A.** > 200 µM

**Q.** And the MIC [24]?
**A.** 50 µM (≈ 21.3 µg/mL)

**Q.** What about the MIC [26] of the same compound?
**A.** > 200 µM

**Q.** And the MIC [27]?
**A.** > 200 µM

**Q.** What about the MIC [28] of the same compound?
**A.** > 200 µM

**Q.** And the MIC [29]?
**A.** > 200 µM

**Q.** What about the MIC [30] of the same compound?
**A.** ≤ 0.78 µM

**Q.** What about the MIC [31] of the same compound?
**A.** ≤ 0.78 µM

**Q.** What about the MIC [32] of the same compound?
**A.** 1.56 µM (≈ 0.664 µg/mL)

**Q.** And the sensitivity observed [33]?
**A.** no activity was seen

Reference: patent US4783443A, “Amino acyl cephalosporin derivatives” (The University of Chicago, priority 1986, dated 1988)
